For assay [1], the system named is nude mice. The assay can be described thus: Hair patch assay for nude mice. In kind it is in vivo. Particulars: subcutaneous injection of epidermal and dermal cells with 50 μg/ml peptide, 30 days. The protocol: Skin was peeled off from 1 day-old C57BL/6 mouse and its epidermis was separated from the dermis by 10 mg/ml Dispase digestion at 4° C. for 2 days. Epidermis and dermis were cut into small pieces and digested at 37° C. in 0.05% Trypsin-EDTA for 15 minutes and then 20 mg/ml collagenase for 60 minutes. Epidermal cells and dermal cells were collected through filtration with 70 μm strainers and low-speed centrifugation.
2×10^7 epidermal cells and 1×10^8 dermal cells were subcutaneously injected into nude mice with ddH2O or Mucinhair peptide (50 μg/ml). After 30 days, mice were sacrificed and hair patch was excised and photographed. The excised skins were paraffin-embedded and tissues were sectioned and stained with hemmtoxylin and eosin (H&E).

Assay [2] concerns dermal papilla cells. The assay can be described thus: Cell proliferation assay (MTT). In kind it is cell-based. Particulars: rat dermal papilla cells, 50 μg/ml, quotient of MTT value vs 0 hour. The protocol: Dermal papilla cells were isolated from rat whiskers and cells were cultured in Dulbecco's modified Eagle's medium (Thermo Scientific, Barrington, Ill., USA) with 10% fetal bovine serum (Gibco, Grand Island, N.Y., USA) and penicillin/streptomycin (100 IU/[…]) in a humidified atmosphere containing 5% CO2 at 37° C. Dermal papilla cells at the 3rd passage were used for all of the following experiments.
2×10^3 dermal papilla cells were seeded in 96-well plates and incubated with Mucinhair peptide (50 μg/ml) or ddH2O for the indicated period. 10 μL of 5 mg/mL 3-(4,5-dimethyl-2-thiazolyl)-2,5-diphenyl-2H-tetrazolium bromide solution (MTT; Sigma) was added to each well and incubated at 37° C. for 4 hours. After which, 100 μL of 10% SDS in 0.01N HCl was added to dissolve the MTT formazan crystals. The resultant optical density was measured spectrophotometrically at dual wavelengths, 550 and 630 nm. The MTT value was obtained by subtracting the OD630 value from the OD550 value.
The term “proliferation rate” used herein is defined as a quotient of the MTT value calculated from cells treated for an indicated period and that calculated from cells treated for 0 hour.

In assay [3] the test system is Hair follicles. The assay can be described thus: Hair follicle culture. To be noted: rat whisker hair follicles, 50 μg/ml, 20th day after treatment, vs ddH2O. In kind it is cell-based. The protocol:
Hair follicles were isolated from 4 week-old rat whiskers and were maintained in Dulbecco's Modified Eagle Medium supplemented with 10% fetal bovine serum, 1% (v/v) antibiotic, and 250 ng/ml fungizone in 5% CO2 at 37° C. for 24 hours. Then, the hair follicles were treated with ddH2O or Mucinhair peptide (50 μg/ml). Medium was changed every 6 days and the hair shaft lengths were measured under a phase contrast microscope on the 20th day after the treatment.

From patent US20180064965A1, “PEPTIDE FOR PROMOTING HAIR GROWTH” (H&H GROUP CO., LTD., priority 2016, published 2018) come the findings set out here.

As to NTSDPQKENRNTG [Mucinhair peptide], the “hair follicles in hypodermis (H&E)” value in assay [1] is listed as “has neogenic hair follicles”. The region with hairs entry in assay [1] (vs ddH2O) is “larger than that injected with ddH2O”. Besides, the figures for the proliferation rate in assay [2] (treated for 48 hours) and in assay [2] (treated for 96 hours) were 2.26±0.23 and 3.31±0.21, respectively. In addition, in assay [3], the hair shaft lengths entry is reported as “longer than those grown with ddH2O treatment”.
